# In patent US4100278A, “Novel benzazepines” (Roussel Uclaf, priority 1976, dated 1978):
# Structures can show the parent of a compound that is named as a salt.
# How the values were obtained:
# [1] = test system: effects of 5-hydroxytryptophane (5 HTP); test: Potentialization of effects of 5 HTP in mice (trembling); assay type: in vivo; conditions: Mus musculus, test product i.p. one hour before 200 mg/kg 5 HTP i.p., observed every 15 minutes for an hour, read-out: MAD (minimum active dose)
# Excerpt: The administration of 5-hydroxytryptophane (5 HTP) to mice pretreated with an antidepressive agent induces in the animals a particular behavoir, namely the appearance of trembling.
# [2] = Acute toxicity (LD50) in mice; conditions: mouse, in vivo, ip, intraperitoneal, mortality at 48 hours
# Method: The LD50, dose which killed 50% of mice was determined by intraperitoneal administration of the test compounds and the mortality rate was determined of 48 hours.
# [3] = test system: effects of nialamide (inhibitor of monoamine oxidase) - hyperactive motility; test: Potentialization of effects of IMAO (nialamide), actimetric counting in mice; assay type: in vivo; set-up: key to the marks not given beside the values; conditions: 30 minutes after nialamide 100 mg/kg i.p., counts totaled every 30 minutes for 6 hours
# L-dopa effects = test: Potentialization of L-dopa effects in mice pretreated with iproniazide; assay type: in vivo; conditions: Mus musculus, ip; male mice, test product i.p. one hour before L-dopa 100 mg/kg i.p.; iproniazide 75 mg/kg i.p. 18 hours before; read-out: ED50 (dose at which 50% of the L-dopa effects were potentialized)
# Method: The administration of L-dopa to mice pretreated with iproniazide 18 hours earlier produces a certain number of symptoms: muscular hypertonicity, hyperactivity, agitation, crying, aggressiveness, salivation and exophthalmia. The intensity of these effects is potentialized by administration of an antidepressive agent one hour before the L-dopa administration.
# Male mice received intraperitoneally 75 mg/kg of iproniazide 18 hours before the start of the test and the test products in aqueous solution were administered intraperitoneally in increasing doses. The L-dopa was intraperitoneally administered at a dose of 100 mg/kg one hour later and the symptoms observed 15 and 30 minutes after the L-dopa administration were evaluated on a scale of 0 to 3 for each mouse and the values were totaled for each dose.
# [4] = test system: uptake of serotonine (5 HT), purified synaptosoma from whole brain; test: Inhibition of uptake of serotonine in vitro (Test No. 1); assay type: biochemical, female rats; conditions: rat brain synaptosoma, 37° C, 5 minutes, C^14 - 5 HT 10^-7 M; read-out: 50% inhibiting concentration (IC 50) of uptake of C^14 - 5 HT (Test No. 1)
# Method: The inhibition of uptake of serotonine (5 HT) was measured with purified synaptosoma prepared by starting from the whole brain of female rats 19-21 days old by the technique of Kannengiesser et al [Biochemical Pharmacology, Vol. 22 (1973), p. 73]. The test products at different concentrations were incubated with the preparation at 37° C for 5 minutes in the presence of C^14 - 5 HT at a concentration of 10^-7 M. The 50% inhibiting concentration (IC 50) of the products was graphically determined as the dose that inhibited by 50% the uptake of C^14 - 5 HT in the synaptosma.
# [5] = test system: uptake of serotonine (C^14 - 5 HT), brain synaptosoma; test: Inhibition of uptake of serotonine in vivo (Test No. 2); conditions: Rattus norvegicus, ip; female rats 19 to 21 days old, 10 mg/kg i.p., brain removed after 30 minutes; read-out: % inhibition of uptake of C^14 - 5 HT with respect to the controls (Test No. 2)
# Method: The test products were administered intraperitoneally to groups of female rats 19 to 21 days old at doses from 5 to 20 mg/kg. After 30 minutes, the brain was removed and the synaptosoma was prepared and was placed in an incubator in the presence of C^14 - 5 HT as indicated previously. […] The activity is expressed in % inhibition with respect to the controls at a dose of 10 mg/kg and the results are reported in Table V.
structure (smiles),measurement,setting,value
"CNC1CCc2ccccc2N(C)C1 (centres unmarked) [Example 5, di-[N,1-dimethyl-2,3,4,5-tetrahydro-[1H]-1-benzazepine-3-amine]-fumarate]",minimal effective dose,[1],50 mg/kg
same,LD50 at 48 h,[2],150 mg/kg
"NC1CCc2ccccc2NC1 (centres unmarked) [Example 4, di-[2,3,4,5-tetrahydro-[1H]-1-benzazepine-3-amine]-fumarate]",minimal effective dose,[1],50 mg/kg
same,Potentialization of nialamide for the dose,[3]; 20 mg/kg i.p.,++
same,LD50 at 48 h,[2],300 mg/kg
same,ED50,L-dopa effects,50 mg/kg
"CNC1CCc2ccccc2NC1 (centres unmarked) [Example 6, di-[N-methyl-2,3,4,5-tetrahydro-[1H]-1-benzazepine-3-amine] fumarate]",minimal effective dose,[1],20 mg/kg
same,LD50 at 48 h,[2],250 mg/kg
"CNCC1CCc2ccccc2N(C)C1 (centres unmarked) [Example 3, Di-[N, 1-dimethyl-2,3,4,5-tetrahydro-[1H]-1-benzazepine-3-methanamine]-fumarate]",minimal effective dose,[1],50 mg/kg
same,Potentialization of nialamide for the dose,[3]; 5 mg/kg i.p.,++
same,LD50 at 48 h,[2],250 mg/kg
same,ED50,L-dopa effects,20 mg/kg
same,IC50,[4],1.3 µM
same,inhibition at 10 mg/kg,[5],40%
"CNCC1CCc2ccccc2NC1.Cl.Cl (centres unmarked) [Example 2, N-methyl-2,3,4,5-tetrahydro-[1H]-1-benzazepine-3-methanamine dihydrochloride]",minimal effective dose,[1],10 mg/kg
same,Potentialization of nialamide for the dose,[3]; 5 mg/kg i.p.,+++
same,LD50 at 48 h,[2],250 mg/kg
same,IC50,[4],1.3 µM
same,inhibition at 10 mg/kg,[5],58%
"NCC1CCc2ccccc2NC1.O=C(O)/C=C/C(=O)O (centres unmarked) [Example 1, 2,3,4,5-tetrahydro-[1H]-1-benzazepine-3-methanamine fumarate]",minimal effective dose,[1],50 mg/kg
same,Potentialization of nialamide for the dose,[3]; 1 mg/kg i.p.,++
same,LD50 at 48 h,[2],300 mg/kg
same,ED50,L-dopa effects,10 mg/kg
